Where a name gives a salt, the structure may show the parent alone.
Molecular target: T1, human GPR40 (Homo sapiens, UniProt O14842)
T1 construct: expressed in transfected cells; host or cells: CHO cell line stably expressing human GPR40
Assay: Determination of EC50 for human GPR40: intracellular calcium change by FLIPR in CHO cells stably expressing human GPR40
Type: cell-based
Conditions: CHO cell line stably expressing human GPR40, changes in intracellular calcium concentration, Fluo3-AM, read-out: EC50 (Receptor Function Modulating Action On GPR40)
Procedure: Determination of EC50 of the Compound of the Present Invention for Human GPR40
For determination of EC50, CHO cell line that stably expressed human GPR40 was used. Unless otherwise indicated, the CHO cell line was cultured using α-MEM medium (Invitrogen) containing 10% fetal calf serum (Invitrogen).
The cells cultured to nearly confluent were rinsed with PBS (Invitrogen) on the previous day of the assay, peeled off with 0.05% Trypsin-EDTA solution (Invitrogen) and recovered by centrifugation. The number of the obtained cells was counted, and the cells were diluted such that 3×10^5 cells were contained per 1 mL of the medium, dispensed to a black welled 96-well plate (coster) by 100 μL per well and cultured overnight in a CO2 incubator. Various test compounds were added to the CHO cells thus prepared, and the changes in the intracellular calcium concentration were measured using FLIPR (Molecular Device). The below-mentioned pre-treatment was applied to measure changes in the intracellular calcium concentration by FLIPR.
First, an assay buffer for adding a fluorescence dye Fluo3-AM (DOJIN) to the cells, or for washing the cells immediately before FLIPR assay was prepared. To a solution of HBSS (Invitrogen, 1000 mL) to which 1M HEPES (pH 7.4, DOJIN, 20 mL) added (hereinafter HBSS/HEPES solution) was added a solution (10 mL) obtained by dissolving probenecid (Sigma, 710 mg) in 1N NaOH (5 mL), and adding and mixing an HBSS/HEPES solution (5 mL), and the resulting solution was used as an assay buffer. Next, Fluo3-AM (50 μg) was dissolved in dimethylsulfoxide (Wako, 21 μL), and an equivalent amount of 20% pluronic acid (Molecular Probes) was added and mixed. The solution was added to the assay buffer (10.6 mL) supplemented with fetal vovine serum (105 μL) to give a fluorescence dye solution. The medium of the CHO cells inoculated to the black welled 96-well plate on the previous day of assay was removed, the fluorescence dye solution was immediately dispensed by 100 μL per well and the cells were cultured in a CO2 incubator for 1 hr to allow intake of the fluorescence dye by the cells. The cells after the culture were washed with the above-mentioned assay buffer and set on FLIPR. The test compound was diluted with dimethylsulfoxide in advance, dispensed to polypropylene 96-well plate (sample plate) by […], and cryopreserved at −20° C. To the thawed sample plate was added an assay buffer containing 0.015% CHAPS (DOJIN) by 198 μL, and simultaneously set on FLIPR together with the cell plate. After the aforementioned pre-treatment, changes in the intracellular calcium concentration upon addition of various test compounds as measured by FLIPR. Based on the results, a dose-response curve of each test compound was formed and EC50 was calculated.

T1 sequence (O14842 whole entry): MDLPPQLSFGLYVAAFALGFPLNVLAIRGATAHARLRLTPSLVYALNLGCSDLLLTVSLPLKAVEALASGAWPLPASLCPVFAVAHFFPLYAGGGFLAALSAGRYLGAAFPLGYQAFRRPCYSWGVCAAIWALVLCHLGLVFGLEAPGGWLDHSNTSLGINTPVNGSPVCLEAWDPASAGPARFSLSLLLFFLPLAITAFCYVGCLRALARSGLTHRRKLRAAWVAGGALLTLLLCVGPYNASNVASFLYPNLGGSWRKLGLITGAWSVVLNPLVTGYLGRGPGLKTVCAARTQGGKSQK

| EC50 | Compound |
| --- | --- |
| < 100 nM | Cc1cc(OS(C)(=O)=O)cc(C)c1-c1cccc(CNc2ccc(CCC(=O)O)c(F)c2)c1 [Example 123, 3-{4-[({2′,6′-dimethyl-4′-[(methylsulfonyl)oxy]biphenyl-3-yl}methyl)amino]-2-fluorophenyl}propanoic acid] |
| < 100 nM | CCOCCS(=O)(=O)c1cc(C)c(-c2cccc(CNc3ccc(CCC(=O)O)c(F)c3)c2)c(C)c1 [Example 184, 3-{4-[({4′-[(2-ethoxyethyl)sulfonyl]-2′,6′-dimethylbiphenyl-3-yl}methyl)amino]-2-fluorophenyl}propanoic acid] |
| < 1000 nM | Cn1ncc(COc2ccc(CNc3ccc(CCC(=O)O)cc3)cc2)c1-c1ccc(F)cc1 [Example 47, 3-{4-[(4-{[5-(4-fluorophenyl)-1-methyl-1H-pyrazol-4-yl]methoxy}benzyl)amino]phenyl}propanoic acid] |
| < 100 nM | Cc1cccc(C)c1-c1cc(CNc2ccc(CCC(=O)O)c(F)c2)cc(OCc2ccccc2)c1 [Example 105, 3-[4-({[5-(benzyloxy)-2′,6′-dimethylbiphenyl-3-yl]methyl}amino)-2-fluorophenyl]propanoic acid methanesulfonate] |
| < 100 nM | Cc1cccc(C)c1-c1cccc2c1CCC2Nc1ccc(CCC(=O)O)c(F)c1 (centres unmarked) [Example 218, 3-(4-{[4-(2,6-dimethylphenyl)-2,3-dihydro-1H-inden-1-yl]amino}-2-fluorophenyl)propanoic acid] |
| < 100 nM | CCOCCOc1cc(C)c(-c2cccc(CNc3ccc(CCC(=O)O)cc3)c2)c(C)c1 [Example 37, 3-[4-({[4′-(2-ethoxyethoxy)-2′,6′-dimethylbiphenyl-3-yl]methyl}amino)phenyl]propanoic acid hydrochloride] |
| < 100 nM | CCN(CC)C(=O)COc1cc(C)c(-c2cccc(CNc3ccc(CCC(=O)O)c(F)c3)c2)c(C)c1 [Example 98, 3-{4-[({4′-[2-(diethylamino)-2-oxoethoxy]-2′,6′-dimethylbiphenyl-3-yl}methyl)amino]-2-fluorophenyl}propanoic acid] |
| < 100 nM | CCOCCOc1cc(C)c(-c2cccc(CNc3ccc4c(c3)OCC4CC(=O)O)c2)c(C)c1 (centres unmarked) [Example 86, [6-({[4′-(2-ethoxyethoxy)-2′,6′-dimethylbiphenyl-3-yl]methyl}amino)-2,3-dihydro-1-benzofuran-3-yl]acetic acid hydrochloride] |
| < 10 nM | Cc1cccc(C)c1-c1cccc(CNc2ccc(CCC(=O)O)cc2)c1 [Example 2, 3-(4-{[(2′,6′-dimethylbiphenyl-3-yl)methyl]amino}phenyl)propanoic acid] |
| < 100 nM | Cc1cc(OCC2(C)COC2)cc(C)c1-c1cccc(CNc2ccc(CCC(=O)O)c(F)c2)c1 [Example 151, 3-{4-[({2′,6′-dimethyl-4′-[(3-methyloxetan-3-yl)methoxy]biphenyl-3-yl}methyl)amino]-2-fluorophenyl}propanoic acid methanesulfonate] |
| < 100 nM | O=C(O)CCc1ccc(NC2CCc3c(Oc4ccccc4)cccc32)cc1 (centres unmarked) [Example 212, 3-{4-[(4-phenoxy-2,3-dihydro-1H-inden-1-yl)amino]phenyl}propanoic acid] |
| < 100 nM | CC(C)(C)c1cc(-c2ccccc2)n(Cc2ccc(CNc3ccc(CCC(=O)O)c(F)c3)cc2)n1 [Example 107, 3-[4-({4-[(3-tert-butyl-5-phenyl-1H-pyrazol-1-yl)methyl]benzyl}amino)-2-fluorophenyl]propanoic acid] |
| < 100 nM | Cc1cc(OCC2(O)CCS(=O)(=O)CC2)cc(C)c1-c1cccc(CNc2ccc(CCC(=O)O)c(F)c2)c1 [Example 188, 3-{2-fluoro-4-[({4′-[(4-hydroxy-1,1-dioxidotetrahydro-2H-thiopyran-4-yl)methoxy]-2′,6′-dimethylbiphenyl-3-yl}methyl)amino]phenyl}propanoic acid] |
| < 100 nM | CCN(CCOc1cc(C)c(-c2cccc(CNc3ccc(CCC(=O)O)c(F)c3)c2)c(C)c1)C(C)=O [Example 200, 3-(4-{[(4′-{2-[acetyl(ethyl)amino]ethoxy}-2′,6′-dimethylbiphenyl-3-yl)methyl]amino}-2-fluorophenyl)propanoic acid methanesulfonate] |
